Experimental findings from patent publication US20070128217A1 (priority 2003, published 2007) are described below.

The subject of assay [1] is recombinant human anti-SARS-CoV antibody 03-018. The class given is binding. On the set-up: Binding of antibody 03-018 to linear peptides of the N protein of SARS-CoV Urbani / Binding of antibody 03-018 to looped/cyclic peptides of the N protein of SARS-CoV Urbani: unit not given here.
The subject of assay [2] is rabbit serum obtained by immunizing a rabbit with the SARS-CoV strain Frankfurt 1. Format: binding. On the set-up: Binding of a rabbit serum to linear peptides / Binding of a rabbit serum to looped peptides / Rabbit serum linear peptides / Rabbit serum looped peptides / Binding of a rabbit serum to linear peptides of protein N of SARS-CoV Urbani (Rabbit serum linear peptides) / Binding of a rabbit serum to looped/cyclic peptides of protein N of SARS-CoV Urbani (Rabbit serum looped peptides): unit not given here.

Assay [3] relates to antibodies in sera from SARS patients (sera 1a, 1b, 2, 6, 37, 62, London, SARS-yellow, SARS-green). The class given is binding, human. Also on record: Binding of serum 6 to linear peptides of protein X1 of SARS-CoV Urbani / Binding of serum 37 to linear peptides of protein X1 of SARS-CoV Urbani / Binding of serum 6 to looped/cyclic peptide (PEPSCAN-ELISA) / Binding of serum 37 to looped/cyclic peptide (PEPSCAN-ELISA) / Binding of serum 37 to looped/cyclic peptides of protein X1 of SARS-CoV Urbani / Binding of serum 6 to linear peptides of protein X2 / Binding of serum 37 to linear peptides of protein X2 / Binding of serum 37 to looped/cyclic peptides of protein X2 of SARS-CoV Urbani / Binding of serum 6 to linear peptides of protein M of SARS-CoV Urbani / Binding of serum 37 to linear peptides of protein M of SARS-CoV Urbani / Binding of serum 6 to looped/cyclic peptides of protein M of SARS-CoV Urbani / Binding of serum 37 to looped/cyclic peptides of protein M of SARS-CoV Urbani / Binding of serum 6 to linear peptides of protein X3 of SARS-CoV Urbani / Binding of serum 37 to linear peptides of protein X3 of SARS-CoV Urbani / Binding of serum 37 to looped/cyclic peptides of protein X3 of SARS-CoV Urbani / Binding of serum 6 to linear peptides of protein X4 of SARS-CoV Urbani / Binding of serum 37 to linear peptides of protein X4 of SARS-CoV Urbani / Binding of serum 37 to looped/cyclic peptides of protein X4 of SARS-CoV Urbani / Binding of serum 6 to linear peptides of protein X5 of SARS-CoV Urbani / Binding of serum 37 to linear peptides of protein X5 of SARS-CoV Urbani / Binding of serum 37 to looped/cyclic peptides of protein X5 of SARS-CoV Urbani / Binding of serum 6 to linear peptides of protein N of SARS-CoV Urbani / Binding of serum 37 to linear peptides of protein N of SARS-CoV Urbani / Binding of serum 6 to linear peptide (PEPSCAN-ELISA) / Binding of serum 1a to looped/cyclic peptides of protein N of SARS-CoV Urbani / Binding of serum 1b to looped/cyclic peptides of protein N of SARS-CoV Urbani / Binding of serum 2 to looped/cyclic peptides of protein N of SARS-CoV Urbani / Binding of serum 6 to looped/cyclic peptides of protein N of SARS-CoV Urbani / Binding of serum 37 to looped/cyclic peptides of protein N of SARS-CoV Urbani / Binding of serum 62 to looped/cyclic peptides of protein N of SARS-CoV Urbani / Binding of serum London to looped/cyclic peptides of protein N of SARS-CoV Urbani / Binding of serum SARS-green to looped/cyclic peptides of protein N of SARS-CoV Urbani: unit not given here.

Assay [4] concerns control sera (pooled serum of ten healthy LUMC hospital workers; commercial negative donor pooled serum from the Dutch bloodbank). The class given is binding, human. On the set-up: Binding of Control serum LUMC to linear peptides / Binding of Control serum Blood-bank to linear peptides / Binding of Control serum LUMC to looped peptides / Binding of Control Serum Blood-Bank to Looped peptides / Binding of Control serum LUMC to linear peptides of the protein M of SARS-CoV Urbani / Binding of Control serum Blood-bank to linear peptides of the protein M of SARS-CoV Urbani / Binding of Control serum LUMC to looped peptides of the protein M of SARS-CoV Urbani / Binding of Control Serum Blood-Bank to Looped peptides of the protein M of SARS-CoV Urbani: unit not given here.

Take ATVLQLPQGTTLPKG: in assay [1], the “Binding of antibody 03-018 to linear peptides of the N protein of SARS-CoV Urbani” value is 0.1 and the “Binding of antibody 03-018 to looped/cyclic peptides of the N protein of SARS-CoV Urbani” value is 0.2. Further, in assay [2], the “Binding of a rabbit serum to linear peptides of protein N of SARS-CoV Urbani (Rabbit serum linear peptides)” value (from here on “Binding … (Rabbit serum linear peptides)”) turned out to be 0.2 and the “Binding of a rabbit serum to looped/cyclic peptides of protein N of SARS-CoV Urbani (Rabbit serum looped peptides)” value stood at 0.3.
Turning to DDKDPQFKDNVILLN, in assay [1], the “Binding of antibody 03-018 to linear peptides of the N protein of SARS-CoV Urbani” value was 0.1 and the “Binding of antibody 03-018 to looped/cyclic peptides of the N protein of SARS-CoV Urbani” value is 0.3. Besides, in assay [2], the “Binding … (Rabbit serum linear peptides)” value amounted to 0.1 and the “Binding of a rabbit serum to looped/cyclic peptides of protein N of SARS-CoV Urbani (Rabbit serum looped peptides)” value stood at 0.4.
Take DKDPQFKDNVILLNK: in assay [1], the “Binding of antibody 03-018 to linear peptides of the N protein of SARS-CoV Urbani” value was determined as 0.1 and the “Binding of antibody 03-018 to looped/cyclic peptides of the N protein of SARS-CoV Urbani” value was determined as 0.4. Besides, in assay [2], the “Binding … (Rabbit serum linear peptides)” value is reported as 0.1 and the “Binding of a rabbit serum to looped/cyclic peptides of protein N of SARS-CoV Urbani (Rabbit serum looped peptides)” value amounted to 0.5.
GSSRGNSPARMASGG: in assay [1], the “Binding of antibody 03-018 to linear peptides of the N protein of SARS-CoV Urbani” value was found to be 0.1 and the “Binding of antibody 03-018 to looped/cyclic peptides of the N protein of SARS-CoV Urbani” value is listed as 0.2. Besides, in assay [3], the “Binding of serum 1a to linear peptide (PEPSCAN-ELISA)” value is given as 0.4, the “Binding of serum 1a to looped/cyclic peptides of protein N of SARS-CoV Urbani” value is given as 0.4, the “Binding of serum 1b to linear peptide (PEPSCAN-ELISA)” value is 0.2 and the “Binding of serum 1b to looped/cyclic peptides of protein N of SARS-CoV Urbani” value is listed as 0.3. In assay [3], the “Binding of serum 2 to linear peptide (PEPSCAN-ELISA)” value worked out at 0.2, the “Binding of serum 2 to looped/cyclic peptides of protein N of SARS-CoV Urbani” value is 0.7, the “Binding of serum 6 to linear peptide (PEPSCAN-ELISA)” value is recorded as 0.2 and the “Binding of serum 6 to looped/cyclic peptides of protein N of SARS-CoV Urbani” value is recorded as 0.4. In assay [3], the “Binding of serum 37 to linear peptide (PEPSCAN-ELISA)” value is reported as 0.5, the “Binding of serum 37 to looped/cyclic peptides of protein N of SARS-CoV Urbani” value is 0.6, the “Binding of serum 62 to linear peptide (PEPSCAN-ELISA)” value was determined as 0.7 and the “Binding of serum 62 to looped/cyclic peptides of protein N of SARS-CoV Urbani” value is recorded as 0.6. Further, in assay [3], the “Binding of serum London to linear peptide (PEPSCAN-ELISA)” value came out at 0.5, the “Binding of serum London to looped/cyclic peptides of protein N of SARS-CoV Urbani” value came out at 0.9, the “Binding of serum SARS-green to linear peptide (PEPSCAN-ELISA)” value is listed as 0.8 and the “Binding of serum SARS-green to looped/cyclic peptides of protein N of SARS-CoV Urbani” value turned out to be 0.7. In addition, in assay [3], the “Binding of serum SARS-yellow to linear peptide (PEPSCAN-ELISA)” value worked out at 0.7 and the “Binding of serum SARS-yellow to looped/cyclic peptides of protein N of SARS-CoV Urbani” value amounted to 0.5. Also, the “Recognition of the peptide by the rabbit serum” value in assay [2] is reported as “recognized”.
In the case of TVLQLPQGTTLPKGF, in assay [1], the “Binding of antibody 03-018 to linear peptides of the N protein of SARS-CoV Urbani” value is given as 0.1 and the “Binding of antibody 03-018 to looped/cyclic peptides of the N protein of SARS-CoV Urbani” value is given as 0.3. For the same sequence, in assay [2], the “Binding … (Rabbit serum linear peptides)” value worked out at 0.3 and the “Binding of a rabbit serum to looped/cyclic peptides of protein N of SARS-CoV Urbani (Rabbit serum looped peptides)” value came out at 1.2.
As to YTQSTALQELLIQQW, in assay [4], the “Binding of Control Serum Blood-Bank to Looped peptides” value is recorded as 0.6, the “Binding of Control serum Blood-bank to linear peptides” value was 0.5, the “Binding of Control serum LUMC to linear peptides” value is recorded as 0.4 and the “Binding of Control serum LUMC to looped peptides” value was found to be 0.6. Besides, in assay [3], the “Binding of serum 1a to linear peptides of protein X2” value is 0.6, the “Binding of serum 1a to looped/cyclic peptides of protein X2 of SARS-CoV Urbani” value amounted to 0.6, the “Binding of serum 1b to linear peptides of protein X2” value came out at 0.5 and the “Binding of serum 1b to looped/cyclic peptides of protein X2 of SARS-CoV Urbani” value was 0.5. Further, in assay [3], the “Binding of serum 2 to linear peptides of protein X2” value amounted to 0.4, the “Binding of serum 2 to looped/cyclic peptides of protein X2 of SARS-CoV Urbani” value is given as 0.5, the “Binding of serum 6 to linear peptides of protein X2” value is reported as 0.4 and the “Binding of serum 6 to looped/cyclic peptides of protein X2 of SARS-CoV Urbani” value was determined as 0.2. Besides, in assay [3], the “Binding of serum 37 to linear peptides of protein X2” value amounted to 0.5, the “Binding of serum 37 to looped/cyclic peptides of protein X2 of SARS-CoV Urbani” value was 0.4, the “Binding of serum 62 to linear peptides of protein X2” value came to 0.6 and the “Binding of serum 62 to looped/cyclic peptides of protein X2 of SARS-CoV Urbani” value is 0.6. Besides, in assay [3], the “Binding of serum London to linear peptides of protein X2” value was 0.5, the “Binding of serum London to looped/cyclic peptides of protein X2 of SARS-CoV Urbani” value amounted to 0.2, the “Binding of serum SARS-green to linear peptides of protein X2” value is reported as 0.6 and the “Binding of serum SARS-green to looped/cyclic peptides of protein X2 of SARS-CoV Urbani” value is 0.3. Further, in assay [3], the “Binding of serum SARS-yellow to linear peptides of protein X2” value came out at 0.6 and the “Binding of serum SARS-yellow to looped/cyclic peptides of protein X2 of SARS-CoV Urbani” value is recorded as 0.3. Also, in assay [2], the “Binding of a rabbit serum to linear peptides” value is recorded as 0.3 and the “Binding of a rabbit serum to looped peptides” value amounted to 0.3.
For YVVVHGYFTEVYYQL, in assay [4], the “Binding of Control Serum Blood-Bank to Looped peptides” value was found to be 0.5, the “Binding of Control serum Blood-bank to linear peptides” value worked out at 0.4, the “Binding of Control serum LUMC to linear peptides” value stood at 1.0 and the “Binding of Control serum LUMC to looped peptides” value came to 0.9. In assay [3], the “Binding of serum 1a to linear peptides of protein X1 of SARS-CoV Urbani” value amounted to 0.7, the “Binding of serum 1a to looped/cyclic peptides of protein X1 of SARS-CoV Urbani” value is listed as 0.6, the “Binding of serum 1b to linear peptides of protein X1 of SARS-CoV Urbani” value is on record as 0.6 and the “Binding of serum 1b to looped/cyclic peptides of protein X1 of SARS-CoV Urbani” value is 0.5. For the same sequence, in assay [3], the “Binding of serum 2 to linear peptides of protein X1 of SARS-CoV Urbani” value came to 0.5, the “Binding of serum 2 to looped/cyclic peptides of protein X1 of SARS-CoV Urbani” value is listed as 0.5, the “Binding of serum 6 to linear peptides of protein X1 of SARS-CoV Urbani” value is on record as 0.3 and the “Binding of serum 6 to looped/cyclic peptides of protein X1 of SARS-CoV Urbani” value is reported as 0.3. For the same sequence, in assay [3], the “Binding of serum 37 to linear peptides of protein X1 of SARS-CoV Urbani” value turned out to be 0.5, the “Binding of serum 37 to looped/cyclic peptides of protein X1 of SARS-CoV Urbani” value was 0.4, the “Binding of serum 62 to linear peptides of protein X1 of SARS-CoV Urbani” value is listed as 0.4 and the “Binding of serum 62 to looped/cyclic peptides of protein X1 of SARS-CoV Urbani” value is 0.4. Further, in assay [3], the “Binding of serum London to linear peptides of protein X1 of SARS-CoV Urbani” value is on record as 0.2, the “Binding of serum London to looped/cyclic peptides of protein X1 of SARS-CoV Urbani” value was 0.2, the “Binding of serum SARS-green to linear peptides of protein X1 of SARS-CoV Urbani” value is given as 0.1 and the “Binding of serum SARS-green to looped/cyclic peptides of protein X1 of SARS-CoV Urbani” value is given as 0.2. In assay [3], the “Binding of serum SARS-yellow to linear peptides of protein X1 of SARS-CoV Urbani” value was 0.2 and the “Binding of serum SARS-yellow to looped/cyclic peptides of protein X1 of SARS-CoV Urbani” value stood at 0.4. In assay [2], the “Binding of a rabbit serum to linear peptides” value worked out at 0.1 and the “Binding of a rabbit serum to looped peptides” value is 0.5.
